Laboratory results as given in US20160162632A1, “METHOD OF SCREENING REACTIONS OR BIOLOGICAL PATHWAYS INDUCED BY COMPOUND” (Samsung Electronics Co., Ltd., priority 2014, published 2016).

System: biochemical pathways with which genes with a change in expression level are associated
Experiment: Selection among predicted reactions using differentially expressed genes (DEGs) by dapsone and DAVID pathway annotation
Format: cell-based
Details: reaction included in the "arginine and prolyl metabolism" pathway from DEGs; FIG. 7
Text: Genes that are differentially expressed (differentially expressed genes, DEGs) by dapsone were experimentally determined. Information about biochemical pathways to which the DEGs are involved was obtained by a functional annotation tool of bioinformatics resources (DAVID Bioinformatics Resources version 6.7 operated by the National Institute of Allergy and Infectious Diseases ([…]), Bethesda, Md.; see Huang D W, Sherman B T, Lempicki R A. “Systematic and integrative analysis of large gene lists using DAVID Bioinformatics Resources,” Nature Protoc. 2009; 4(1):44-57; Huang D W, Sherman B T, Lempicki R A. “Bioinformatics enrichment tools: paths toward the comprehensive functional analysis of large gene lists,” Nucleic Acids Res. 2009; 37(1):1-13).
The term “Term” refers to a pathway related to a gene list. The terms “Genes” and “Count” denotes the numbers of genes included in the corresponding terms. The length of the square in the column for “Genes” indicates the number of genes included in the corresponding terms. % refers to a ratio of genes included in the corresponding terms to genes input as DEGs of dapson. These pathways were identified in terms of whether each of the predicted reaction as described in Example 2.1. is included therein.

Nc1ccc(S(=O)(=O)c2ccc(N)cc2)cc1 [dapsone, 4,4′-diaminodiphenylsulfone]
enzyme reaction determined as induced in a cell by treatment: ATP:creatine N-phosphotransferase reaction
